Assay results: patent US6514519B1, “Edelfosin for the treatment of brain tumors” (Med-Mark Pharma GmbH, priority 1998, dated 2003)
“And” between values parts separate entries of the source, which are not always exact repeats. Equal values may be shown once. “Also recorded” adds a separate entry of the source.

Tests used:
brain tumors = test: clinical phase II study with edelfosine: result of therapy and survival time; assay type: in vivo, humans; details: for Result of therapy (clin.): assessed on clinical symptoms (clin.)
Method: The patients which are listed below in Table 1, with their status before and after treatment, were treated with edelfosine in the phase II study. It is important to emphasize in this connection that virtually all the patients have previously been treated or were from the outset untreatable (inoperable tumors). All the patients were treated with an average of 300 mg of edelfosine/day (range of variation between 50 and 600 mg). […] The carrier medium/active ingredient mixture is drunk in different dose levels/portion, which differed from patient to patient, distributed over the day. Administration is accordingly oral; the treatment is entirely on an outpatient basis, unless the clinical picture makes admission to hospital unavoidable.
The number and duration of previous treatments before the start of therapy with a medicine are crucial for assessing the therapeutic efficacy=survival time and quality of survival; the survival time is in such cases always measured from the time at which the therapy with a medicine is started. The time which has elapsed from diagnosis until the start of treatment initially plays no direct part in this. However, it must be taken into account when the survival time of a last resort therapy (as edelfosine in this case) is compared with that of therapies which are usually started immediately after diagnosis (this is the case for chemotherapy and radiation studies).
For virtually all the patients, a tumor which continued to grow after all the therapies used led to the edelfosine therapy, i.e. the tumor was progressive (cf. Table 1, column “Tumor activity”). The specification of “clinical” progression means in this connection that the tumor was progressive on the basis of deteriorating clinical symptoms (for example increase in headaches, congestion in the head, dizziness, tendency to fall, neurological symptoms in general), but no objective study (for example CT) was available for comparison.
The pharmacodynamic effect, i.e. the effect of a medicine directly on the tumor, is normally measured 2 months after starting a therapy. This pharmacodynamic effect is defined differently depending on which class the substance belongs to (that is to say cytostatic, hormone product, immunomodulator etc.). […] The aim of therapy is accordingly a cessation of tumor growth (no change).
The survival time is measured from the start of therapy with a medicine. The state of the art survival time data reported in the literature for the treatment of brain tumors are usually based on either adjuvant treatment of patients, that is to say directly after surgical removal of a tumor, or else on treatment immediately after making the diagnosis.

[1] = adverse drug reactions (ADR) investigated during phase II studies; assay type: in vivo, humans
Excerpt: During phase II studies, in accordance with requirements the adverse drug reactions (ADR) were also investigated. The result is shown in Table 2: The grading of the symptoms as transferred to the case report forms took place in accordance with the internationally used WHO classification. The assessment “yes” means that a symptom is caused by the medicine.

healthy cells = details: healthy vs degenerate cells; cited from earlier work
human leukemic cells = details: cited from earlier work
[2] = patients with Karnofsky index <70% (N=16)
[3] = ADR caused by edelfosine, number of 150 courses
[4] = ADR caused by edelfosine, number of 159 courses
[5] = ADR not caused by edelfosine, number of 149 courses
[6] = ADR not caused by edelfosine, number of 150 courses
[7] = ADR not caused by edelfosine, number of 159 courses
[8] = ADR possibly caused by edelfosine, number of 150 courses
[9] = ADR possibly caused by edelfosine, number of 159 courses
[10] = no symptom reported, number of 149 courses
[11] = no symptom reported, number of 150 courses

Q: What does the source list for CCCCCCCCCCCCCCCCCCOC[C@H](COP(=O)([O-])OCC[N+](C)(C)C)OC (racemic) [edelfosine, 1-octadecyl-2-methyl-sn-glycero-3-phosphocholine]?
A: Result of therapy (brain tumors; Anaplastic oligodendroglioma): No further progression; Result of therapy (brain tumors; Astrocytoma II): No further progression; Result of therapy (brain tumors; Astrocytoma II/III): No further progression; Survival time (brain tumors; Astrocytoma II/III): 412 days; Result of therapy (clin.) (brain tumors; Astrocytoma II): No further progression; Result of therapy (brain tumors; Ependymoblastoma): Progression; Survival time (brain tumors; Ependymoblastoma): 196 days; Result of therapy (brain tumors; Glioblastoma (Ø histol.)): Progression; Result of therapy (clin.) (brain tumors; Glioblastoma (Ø histol.)): No further progression; Result of therapy (brain tumors; Glioblastoma IV): Progression; Survival time (brain tumors; Glioblastoma IV): 143 days and 266 days; Result of therapy (brain tumors; Glioblastoma IV + Gliosarcoma): No further progression; Survival time (brain tumors; Glioblastoma IV + Gliosarcoma): 203 days; Result of therapy (clin.) (brain tumors; Glioblastoma IV): No further progression; Result of therapy (clin.) (brain tumors; Glioblastoma multiforme): No further progression; survival of Pat. No. 247 (brain tumors; Glioblastoma, many years after completion of therapy): survived until the 8th year; Result of therapy (brain tumors; Gliosarcoma): No further progression; Survival time (brain tumors; Gliosarcoma): 110 days; Survival time (brain tumors; Oligoastrocytoma II): 270 days; Result of therapy (clin.) (brain tumors; Oligoastrocytoma II): No further progression; Result of therapy (brain tumors; Oligoastrocytoma IV): No further progression; Survival time (brain tumors; Oligoastrocytoma IV): 1602 days; Result of therapy (brain tumors; Oligodendroglioma III): No further progression; Survival time (brain tumors; Oligodendroglioma III): 573 days; Result of therapy (brain tumors; Oligodendroglioma III/IV): No further progression; Survival time (brain tumors; Oligodendroglioma III/IV): 2141 days; Result of therapy (brain tumors; Oligodendroglioma IV): No further progression; Survival time (brain tumors; Oligodendroglioma IV): 572 days; patients with clinical stabilization/improvement although tumor progressive according to imaging (brain tumors; after 2 months): 2%; treated patients with tumor still progressive (brain tumors; after 2 months): about 24%; treated patients with stabilization on the basis of clinical symptoms (cNC=clinical no change) (brain tumors; after 2 months of therapy, no objective study): approx. 14%; treated patients with cessation of tumor growth (NC=no change) (brain tumors; imaging study after 2 months of therapy): about 56%; maximum gain in survival time (brain tumors; patients with Karnofsky index <70%): > 20 months; average survival time (brain tumors; [2]): about 260 days; range of variation of survival time (brain tumors; [2]): 90 to 619 days; Appetite, Grade 1 yes [1, 3]: 4; Appetite, Grade 2 yes [1, 3]: 1; Appetite, Grade 3 yes [1, 3]: 2; Constipation, Grade 1 yes [1, 3]: 3; Diarrhea, Grade 1 yes [1, 3]: 5; Diarrhea, Grade 2 yes [1, 3]: 1; Nausea/vomiting, Grade 1 yes [1, 4]: 12; Nausea/vomiting, Grade 2 yes [1, 4]: 2; CNS toxicity, Grade 1 no ([1]; ADR not caused by edelfosine, number of 135 courses): 1; Skin changes, Grade 4 no ([1]; ADR not caused by edelfosine, number of 148 courses): 3; Alopecia, Grade 1 no [1, 5]: 3; Alopecia, Grade 2 no [1, 5]: 1; Alopecia, Grade 3 no [1, 5]: 3; Alopecia, Grade 4 no [1, 5]: 16; Pain, Grade 1 no [1, 5]: 7; Pain, Grade 2 no [1, 5]: 5; Pain, Grade 3 no [1, 5]: 3; Periph. neurop., Grade 1 no [1, 5]: 18; Appetite, Grade 1 no [1, 6]: 4; Appetite, Grade 2 no [1, 6]: 1; Appetite, Grade 3 no [1, 6]: 4; Appetite, Grade 4 no [1, 6]: 1; Arrhythmia, Grade 1 no [1, 6]: 5; Constipation, Grade 1 no [1, 6]: 1; Diarrhea, Grade 2 no [1, 6]: 1; Dyspnea, Grade 1 no [1, 6]: 4; Dyspnea, Grade 2 no [1, 6]: 3; Dyspnea, Grade 3 no [1, 6]: 1; Dyspnea, Grade 4 no [1, 6]: 1; Fever, Grade 1 no [1, 6]: 1; Fever, Grade 2 no [1, 6]: 7; Hemorrhages, Grade 1 no [1, 6]: 2; Infection, Grade 1 no [1, 6]: 3; Infection, Grade 2 no [1, 6]: 1; Nausea/vomiting, Grade 1 no [1, 7]: 1; Nausea/vomiting, Grade 2 no [1, 7]: 8; Nausea/vomiting, Grade 3 no [1, 7]: 2; CNS toxicity, Grade 1 ? ([1]; ADR possibly caused by edelfosine, number of 135 courses): 1; Alopecia, Grade 1 ? ([1]; ADR possibly caused by edelfosine, number of 149 courses): 1; Appetite, Grade 1 ? [1, 8]: 5; Appetite, Grade 2 ? [1, 8]: 2; Appetite, Grade 3 ? [1, 8]: 2; Constipation, Grade 1 ? [1, 8]: 3; Diarrhea, Grade 1 ? [1, 8]: 1; Nausea/vomiting, Grade 1 ? [1, 9]: 5; Nausea/vomiting, Grade 2 ? [1, 9]: 6; cumulative toxicity ([1]; after several years of uninterrupted therapy): no cumulative toxicity; reversibility of observed ADR symptoms ([1]; edelfosine therapy): reversible within a very short time (hours); CNS toxicity, Grade 0 ([1]; no symptom reported, number of 135 courses): 133; Skin changes, Grade 0 ([1]; no symptom reported, number of 148 courses): 145; Alopecia, Grade 0 [1, 10]: 125; Hematuria, Grade 0 [1, 10]: 149; Pain, Grade 0 [1, 10]: 133; Periph. neurop., Grade 0 [1, 10]: 131; Stomatitis, Grade 0 [1, 10]: 149; Appetite, Grade 0 [1, 11]: 123; Arrhythmia, Grade 0 [1, 11]: 145; Constipation, Grade 0 [1, 11]: 143; Diarrhea, Grade 0 [1, 11]: 142; Dyspnea, Grade 0 [1, 11]: 141; Fever, Grade 0 [1, 11]: 142; Heart failure, Grade 0 [1, 11]: 150; Hemorrhages, Grade 0 [1, 11]: 148; Infection, Grade 0 [1, 11]: 146; Allergy, Grade 0 ([1]; no symptom reported, number of 151 courses): 151; Nausea/vomiting, Grade 0 ([1]; no symptom reported, number of 159 courses): 121; esophagoscopy, gastroscopy findings ([1]; patients with nausea/vomiting (gastric pressure) during edelfosine therapy): no pathological findings at all; adverse drug reactions of Pat. No. 542 ([1]; therapy of about 6 years, total dose of about 640 g): negligible adverse drug reactions; also recorded: no ADRs at all; fate in healthy cells after uptake (healthy cells): degraded in healthy cells; apoptosis (human leukemic cells): reinduction of apoptosis
